Experimental findings from patent US20240208901A1, “Deuterated 3,3'-Diselenodipropionic Acid (DSePA) and Its Use as an Anticancer or Radioprotective Agent” (Secretary, Department of Atomic Energy, priority 2022, published 2024) are described below.

Structures are written as SMILES.

Assay [1] has as its system human NSCLC cells such as A549, H1975 and H3122. Description: MTT assay, human NSCLC cells (summary statement). The note with it: read-out: half maximum concentration (IC50) for growth inhibition. The class given is cell-based. An excerpt:
3,3′-Disclenodipropionic acid-D8 (D-DSePA, chemical structure shown in FIG. 1) was synthesized by reacting freshly prepared sodium selenide (Na2Se2) and 3-bromopropionic acid-D4 in D2O solvent with 42% yield. The synthesized D-DSePA was purified and characterized by NMR spectroscopy and mass spectrometry. The molecular structure of D-DSePA has been established by single-crystal X-ray diffraction analysis. The treatment of D-DSePA and un-deuterated DSePA inhibited the growth of human NSCLC cells such as A549, H1975 and H3122 with half maximum concentration (IC50) in the range of 5-50 μM by MTT assay. […] Finally, at identical treatment concentration, D-DSePA offered better radioprotection to non-cancerous WI38 cells with a dose modification factor (DMF) of 1.16±0.05 as compared to un-deuterated DScPA with DMF of 1.12±0.03.
(§1) MTT Assay—To evaluate the anti-proliferative effect of D-DScPA and DScPA, Cells (˜5×10^3) suspended in 100 μl of complete culture medium were seeded in each well of 96 well plates. […] The percentage (%) cytotoxicity was calculated from the decrease in absorbance at 570 nm of treated groups as compared to that of control group. […] The therapeutic index was calculated by normalizing the IC50 concentration of D-DSePA/DSePA in non-cancerous cells to that in cancerous cells.

The test system of another assay is WI-26 VA4 cells. Description: MTT assay, toxicity in non-cancerous lung fibroblast WI-26 VA4 cells. The class given is cell-based, human. Conditions: Homo sapiens, WI26VA4, 48 h post treatment, read-out: IC50 for inhibiting the cell proliferation.
From the text: (§2) Therefore, D-DSePA was compared with un-deuterated DSePA for its anticancer activity in A549, H1975 and H3122 cell lines which are representative of NSCLC. […] The plot of percent (%) cytotoxicity (100-% viability) versus the concentration of DSePA/D-DSePA was used to estimate the half maximum concentration (IC50) of above compounds to inhibit the proliferation of cells. […] Similarly, the toxicity of DSePA/D-DSePA was studied in non-cancerous lung fibroblast cells, WI-38 and WI-26 VA4 in the concentration range of 0.1 to 1000 μM at 48 h post treatment by MTT assay (FIG. 9D and 9E). […] Employing these values, the therapeutic index (IC50 in normal lung cell/IC50 in lung cancer cell) of DSePA and D-DSePA in different pairs of normal versus cancerous cells (viz., A549/WI-38, A549/WI-26 VA4, H1975/WI-38, H1975/WI-26 VA4, H3122/WI-38 and H3122/WI-26 VA4) was calculated (Table-3). […]
as §1
A general note: Tetrazolium dyes change colour on reduction, which living cells bring about.

For another assay, the system named is WI-38 cells. Description: MTT assay, toxicity in non-cancerous lung fibroblast WI-38 cells. Format: cell-based, human. Conditions: Homo sapiens, WI-38, WI38 cells, 48 h post treatment, read-out: IC50 for inhibiting the cell proliferation.
From the text: as §2, §1

Another assay deals with A549 cells. Description: MTT assay, anti-proliferative effect in A549 cells. Conditions: Homo sapiens, 48 h treatment, read-out: IC50 to inhibit cell proliferation. Format: cell-based, human. The protocol:
(§3) Therefore, D-DSePA was compared with un-deuterated DSePA for its anticancer activity in A549, H1975 and H3122 cell lines which are representative of NSCLC. For this, above cells were treated with the varying concentrations (0.1-100 μM) of DSePA/D-DSePA for 48 h and the cell viability was determined by MTT assay (FIG. 9A-C). The plot of percent (%) cytotoxicity (100-% viability) versus the concentration of DSePA/D-DSePA was used to estimate the half maximum concentration (IC50) of above compounds to inhibit the proliferation of cells. […] Employing these values, the therapeutic index (IC50 in normal lung cell/IC50 in lung cancer cell) of DSePA and D-DSePA in different pairs of normal versus cancerous cells (viz., A549/WI-38, A549/WI-26 VA4, H1975/WI-38, H1975/WI-26 VA4, H3122/WI-38 and H3122/WI-26 VA4) was calculated (Table-3). […]
as §1

A further assay relates to H1975 cells. Description: MTT assay, anti-proliferative effect in H1975 cells. The class given is cell-based, human. Conditions: Homo sapiens, NCI-H1975, 48 h treatment, read-out: IC50 to inhibit cell proliferation. The protocol: as §3, §1
Assay [2] concerns lung cancer cell lines (A549, H1975 and H3122) versus normal lung cells (WI-38 and WI-26 VA4). Description: Therapeutic index by MTT assay, lung cancer cell lines versus normal lung cells. The class given is cell-based, human. Conditions: for Therapeutic Index (IC50 in normal cell / IC50 in cancer cells): 48 h post-treatment. The procedure: Therefore, D-DSePA was compared with un-deuterated DSePA for its anticancer activity in A549, H1975 and H3122 cell lines which are representative of NSCLC. For this, above cells were treated with the varying concentrations (0.1-100 μM) of DSePA/D-DSePA for 48 h and the cell viability was determined by MTT assay (FIG. 9A-C). The plot of percent (%) cytotoxicity (100-% viability) versus the concentration of DSePA/D-DSePA was used to estimate the half maximum concentration (IC50) of above compounds to inhibit the proliferation of cells. […] Similarly, the toxicity of DSePA/D-DSePA was studied in non-cancerous lung fibroblast cells, WI-38 and WI-26 VA4 in the concentration range of 0.1 to 1000 μM at 48 h post treatment by MTT assay (FIG. 9D and 9E). […] Employing these values, the therapeutic index (IC50 in normal lung cell/IC50 in lung cancer cell) of DSePA and D-DSePA in different pairs of normal versus cancerous cells (viz., A549/WI-38, A549/WI-26 VA4, H1975/WI-38, H1975/WI-26 VA4, H3122/WI-38 and H3122/WI-26 VA4) was calculated (Table-3). […] The average therapeutic index of DSePA and D-DSePA estimated from above study was 11.05±1.5 and 78.7±29.2 respectively (FIG. 10).
MTT Assay—To evaluate the anti-proliferative effect of D-DScPA and DScPA, Cells (˜5×10^3) suspended in 100 μl of complete culture medium were seeded in each well of 96 well plates. The cells were allowed to attach and grow for 24 h, treated with desired concentrations of D-DSePA/DScPA dissolved in culture medium for 48 h and then processed for MTT assay as described in literature. The percentage (%) cytotoxicity was calculated from the decrease in absorbance at 570 nm of treated groups as compared to that of control group. The % cytotoxicity was plotted as a function of the concentration of D-DSePA and DSePA and from this curve, the concentration of D-DSePA/DScPA causing 50% toxicity (IC50) was estimated. The therapeutic index was calculated by normalizing the IC50 concentration of D-DSePA/DSePA in non-cancerous cells to that in cancerous cells.

The test system of another assay is H3122 cells. Description: MTT assay, anti-proliferative effect in H3122 cells. The class given is cell-based, human. Conditions: Homo sapiens, NCI-H3122, 48 h treatment, read-out: IC50 to inhibit cell proliferation. The protocol: as §3, §1

As for `O=C(O)CC[Se][Se]CCC(=O)O` [DSePA, 3,3′-diselenodipropionic acid], the IC50 was 5 to 50 µM in assay [1]; 151 ± 3.3 µM with WI-26 VA4 cells; 171 ± 2.2 µM in the assay with WI-38 cells; 15.2 ± 1 µM in the assay on A549 cells; 10.6 ± 1.1 µM with H1975 cells; 21.5 ± 1.2 µM in the assay on H3122 cells. Besides, the “Therapeutic Index (IC50 in normal cell / IC50 in cancer cells)” value in assay [2] (A549/WI-26 VA4, MTT assay) is 9.9 ± 0.5; in assay [2] (A549/WI-38, MTT assay) it was 11.2 ± 0.6; in assay [2] (H1975/WI-26 VA4, MTT assay) it was 14.2 ± 0.7; in assay [2] (H1975/WI-38, MTT assay) it was 16.1 ± 0.8; in assay [2] (H3122/WI-26 VA4, MTT assay) it was 7.0 ± 0.4; in assay [2] (H3122/WI-38, MTT assay), 7.9 ± 0.4. This compound also came in with an average therapeutic index in assay [2] (mean of six normal/cancer cell pairs, mean±SEM (n=6), MTT assay) of 11.05±1.5.
